These are literature values, as cited in US20080114046A1, “Pharmaceutical Combination of Angiotensin II Antagonists and Angiotensin I Converting Enzyme Inhibitors” (Boehringer Ingelheim International GmbH, priority 2002, published 2008).

For data set [1] the following is noted: first clinical trials.
The conditions of data set [2]: HOPE study, treatment with ACE inhibitor ramipril.
For data set [3] the following is noted: normotensive patients with diabetic nephropathy; losartan added to enalapril.

On to `CCCCC1=NC2(CCCC2)C(=O)N1Cc1ccc(-c2ccccc2-c2nnn[nH]2)cc1` [irbesartan], for which the renoprotective effect entry in data set [1] is reported as “renoprotective effect”.

As to `CCOC(=O)[C@H](CCc1ccccc1)N[C@@H](C)C(=O)N1[C@H](C(=O)O)C[C@@H]2CCC[C@@H]21` [ramipril], in data set [2], the “reduction of the risk of the combined primary cardiovascular outcome” value is 22%.

Consider `CCCCc1nc(Cl)c(CO)n1Cc1ccc(-c2ccccc2-c2nn[nH]n2)cc1` [losartan], for which the renoprotective effect entry in data set [1] is given as “renoprotective effect”. Also, in data set [3], the “antiproteinuric effect of enalapril” value is reported as “potentiated”.
